Assay results taken from patent US20250281461A1 (The Board of Supervisors of Louisiana State University and …, priority 2021, published 2025).
Values joined by “and” are separate entries in the source; they are usually repeats but may differ in a detail not shown here. Equal values may be shown once.

Assays:
[1] = test system: SARS-COV-2 virus (USA WA1/2020); assay: ACE2 mouse model, TCID50 analysis of lung samples; assay type: in vivo; details: K18-hACE2 mice, Day 6 lung; for Titer, TCID50 analysis of lung samples, Group Mean: 7 animals; for Titer, TCID50 analysis of lung samples, individual animals: scored on Vero C1008 (E6) cells after 120 hours
Calu-3 = assay: Cytotoxicity of Imatinib in Calu-3 cells; details: any concentration tested (up to 100 μM)
[2] = test system: SARS-COV-2 virus (USA WA1/2020); assay: ACE2 mouse model, lung tissue RT-qPCR viral titer; assay type: in vivo; details: K18-hACE2 mice; for Lung Tissue RT-qPCR Viral Titer Log10, Group Mean: Day 6, 7 animals
[3] = test system: human lung cancer (Calu-3) cells
[4] = test system: SARS-COV-2 (USA-WA1/2020 Isolate); assay type: cell-based; details: Calu-3 cells, Mebendazole 2.3 nM-5000 nM
[5] = cited from earlier work
in vitro = details: human
[6] = pre-clinical models, oral administration; cited from earlier work
[7] = Day 6, 50 mg/kg/day Mebendazole and/or 100 mg/kg/day Imatinib, oral gavage once daily

Compound | Titer, TCID50 analysis of lung samples, Group Mean [1] [Log10 TCID50/mL] | Titer, TCID50 analysis of lung samples, individual animals [1] | cytotoxicity (Calu-3) | cytotoxicity (Vero 76 cells) | Lung Tissue RT-qPCR Viral Titer Log10, Group Mean [2] | Lung Tissue RT-qPCR Viral Titer Log10, individual animals [2, 7] | Lung Tissue RT-qPCR Viral Titer, individual animals [2, 7] | inhibition of cell viability ([3]; all tested concentrations up to 5000 nM) [%] | CC50 ([3]; read-out: CC50 (cytotoxic concentration), estimated from absence of cytotoxicity up to 5000 nM) [µM] | Inhibition of SARS-COV-2 (maximum reached) [4] [%] | plasma concentrations ([5]; 100 mg twice daily for three consecutive days) | higher exposure to steady-state ([5]; long-term oral administration) [fold] | oral dose excreted in urine ([5]; oral dose) [%] | oral bioavailability ([5]; reported) [%] | CC50 (in vitro) [µM] | bioavailability [6]
Cc1ccc(NC(=O)c2ccc(CN3CCN(C)CC3)cc2)cc1Nc1nccc(-c2cccnc2)n1 [Imatinib] | 7.4 | 8.0 Log10 TCID50/mL and 6.5 Log10 TCID50/mL and 8.3 Log10 TCID50/mL and 7.5 Log10 TCID50/mL and 5.3 Log10 TCID50/mL and 7.6 Log10 TCID50/mL and 8.5 Log10 TCID50/mL | no cytotoxicity was observed | no cytotoxicity was observed | 7.8 | 7.9 (2×) and 8.0 and 7.3 and 8.5 and 7.6 and 7.7 | 7.80E+07 and 9.13E+07 and 2.15E+07 and 7.53E+07 and 3.12E+08 and 3.67E+07 and 5.37E+07 | – | – | – | – | – | – | – | – | –
COC(=O)Nc1nc2ccc(C(=O)c3ccccc3)cc2[nH]1 [Mebendazole] | 5.8 | 6.0 Log10 TCID50/mL and 5.3 Log10 TCID50/mL (2×) and 4.8 Log10 TCID50/mL and 5.5 Log10 TCID50/mL and 7.3 Log10 TCID50/mL and 6.5 Log10 TCID50/mL | – | – | 7.6 | – | – | ~0 | > 5 | 100 | ≤ 0.03 μg/mL and ≤ 0.1 μM | ~3 | < 2 | 17 | > 5 | about 15%
